Key:
Type in all cases: functional
[1] = test system: MDA-MB-231; assay: Growth inhibition of human MDA-MB-231 cells assessed as cell growth at 10 uM after 48 hrs by sulforhodamine B assay relative to control; conditions: MDA-MB-231, 48 h, read-out: Activity
[2] = test system: UACC-257; assay: Growth inhibition of human UACC257 cells assessed as cell growth at 10 uM after 48 hrs by sulforhodamine B assay relative to control; conditions: UACC-257, 48 h, read-out: Activity
[3] = test system: A549; assay: Growth inhibition of human A549/ATCC cells assessed as cell growth at 10 uM after 48 hrs by sulforhodamine B assay relative to control; conditions: A549, 48 h, read-out: Activity
[4] = test system: NCI-H522; assay: Growth inhibition of human NCI-H522 cells assessed as cell growth at 10 uM after 48 hrs by sulforhodamine B assay relative to control; conditions: NCI-H522, 48 h, read-out: Activity
[5] = test system: SNB-75; assay: Growth inhibition of human SNB75 cells assessed as cell growth at 10 uM after 48 hrs by sulforhodamine B assay relative to control; conditions: SNB-75, 48 h, read-out: Activity
[6] = test system: HOP-62; assay: Growth inhibition of human HOP62 cells assessed as cell growth at 10 uM after 48 hrs by sulforhodamine B assay relative to control; conditions: HOP-62, 48 h, read-out: Activity
[7] = test system: HOP-92; assay: Growth inhibition of human HOP92 cells assessed as cell growth at 10 uM after 48 hrs by sulforhodamine B assay relative to control; conditions: HOP-92, 48 h, read-out: Activity
[8] = test system: COLO 205; assay: Growth inhibition of human COLO205 cells assessed as cell growth at 10 uM after 48 hrs by sulforhodamine B assay relative to control; conditions: COLO 205, 48 h, read-out: Activity
[9] = test system: IGROV-1; assay: Growth inhibition of human IGROV1 cells assessed as cell growth at 10 uM after 48 hrs by sulforhodamine B assay relative to control; conditions: IGROV-1, 48 h, read-out: Activity
[10] = test system: SN12C; assay: Growth inhibition of human SN12C cells assessed as cell growth at 10 uM after 48 hrs by sulforhodamine B assay relative to control; conditions: read-out: Activity
[11] = test system: NCI-H460; assay: Growth inhibition of human NCI-H460 cells assessed as cell growth at 10 uM after 48 hrs by sulforhodamine B assay relative to control; conditions: NCI-H460, 48 h, read-out: Activity
[12] = test system: K562; assay: Growth inhibition of human K562 cells assessed as cell growth at 10 uM after 48 hrs by sulforhodamine B assay relative to control; conditions: K562, 48 h, read-out: Activity
[13] = test system: HT-29; assay: Growth inhibition of human HT-29 cells assessed as cell growth at 10 uM after 48 hrs by sulforhodamine B assay relative to control; conditions: HT-29, 48 h, read-out: Activity
[14] = test system: A498; assay: Growth inhibition of human A498 cells assessed as cell growth at 10 uM after 48 hrs by sulforhodamine B assay relative to control; conditions: A498, 48 h, read-out: Activity
[15] = test system: KM12; assay: Growth inhibition of human KM12 cells assessed as cell growth at 10 uM after 48 hrs by sulforhodamine B assay relative to control; conditions: KM12, 48 h, read-out: Activity
[16] = test system: OVCAR-3; assay: Growth inhibition of human OVCAR3 cells assessed as cell growth at 10 uM after 48 hrs by sulforhodamine B assay relative to control; conditions: OVCAR-3, 48 h, read-out: Activity
[17] = test system: HCT-15; assay: Growth inhibition of human HCT15 cells assessed as cell growth at 10 uM after 48 hrs by sulforhodamine B assay relative to control; conditions: HCT-15, 48 h, read-out: Activity
[18] = test system: Hs-578T; assay: Growth inhibition of human Hs 578T cells assessed as cell growth at 10 uM after 48 hrs by sulforhodamine B assay relative to control; conditions: read-out: Activity
[19] = test system: HL-60(TB); assay: Growth inhibition of human HL-60(TB) cells assessed as cell growth at 10 uM after 48 hrs by sulforhodamine B assay relative to control; conditions: HL-60, 48 h, read-out: Activity
[20] = test system: Malme-3M; assay: Growth inhibition of human MALME-3M cells assessed as cell growth at 10 uM after 48 hrs by sulforhodamine B assay relative to control; conditions: read-out: Activity
[21] = test system: OVCAR-4; assay: Growth inhibition of human OVCAR4 cells assessed as cell growth at 10 uM after 48 hrs by sulforhodamine B assay relative to control; conditions: OVCAR-4, 48 h, read-out: Activity
[22] = test system: SK-MEL-28; assay: Growth inhibition of human SK-MEL-28 cells assessed as cell growth at 10 uM after 48 hrs by sulforhodamine B assay relative to control; conditions: SK-MEL-28, 48 h, read-out: Activity
[23] = test system: CAKI-1; assay: Growth inhibition of human Caki1 cells assessed as cell growth at 10 uM after 48 hrs by sulforhodamine B assay relative to control; conditions: CAKI-1, 48 h, read-out: Activity
[24] = test system: CCRF-CEM; assay: Growth inhibition of human CCRF-CEM cells assessed as cell growth at 10 uM after 48 hrs by sulforhodamine B assay relative to control; conditions: read-out: Activity
[25] = test system: UO-31; assay: Growth inhibition of human UO31 cells assessed as cell growth at 10 uM after 48 hrs by sulforhodamine B assay relative to control; conditions: UO-31, 48 h, read-out: Activity
[26] = test system: NCI-H23; assay: Growth inhibition of human NCI-H23 cells assessed as cell growth at 10 uM after 48 hrs by sulforhodamine B assay relative to control; conditions: NCI-H23, 48 h, read-out: Activity
[27] = test system: U-251; assay: Growth inhibition of human U251 cells assessed as cell growth at 10 uM after 48 hrs by sulforhodamine B assay relative to control; conditions: U-251, 48 h, read-out: Activity
[28] = test system: RPMI-8226; assay: Growth inhibition of human RPMI8226 cells assessed as cell growth at 10 uM after 48 hrs by sulforhodamine B assay relative to control; conditions: RPMI-8226, 48 h, read-out: Activity
[29] = test system: SK-MEL-5; assay: Growth inhibition of human SK-MEL-5 cells assessed as cell growth at 10 uM after 48 hrs by sulforhodamine B assay relative to control; conditions: SK-MEL-5, 48 h, read-out: Activity
[30] = test system: OVCAR-5; assay: Growth inhibition of human OVCAR5 cells assessed as cell growth at 10 uM after 48 hrs by sulforhodamine B assay relative to control; conditions: OVCAR-5, 48 h, read-out: Activity
[31] = test system: RXF 393; assay: Growth inhibition of human RXF393 cells assessed as cell growth at 10 uM after 48 hrs by sulforhodamine B assay relative to control; conditions: RXF 393, 48 h, read-out: Activity
[32] = test system: DU-145; assay: Growth inhibition of human DU145 cells assessed as cell growth at 10 uM after 48 hrs by sulforhodamine B assay relative to control; conditions: DU-145, 48 h, read-out: Activity
[33] = test system: LOX IMVI; assay: Growth inhibition of human LOXIMVI cells assessed as cell growth at 10 uM after 48 hrs by sulforhodamine B assay relative to control; conditions: read-out: Activity

| Compound | growth at 10 µM [1] [%] | growth at 10 µM [2] [%] | growth at 10 µM [3] [%] | growth at 10 µM [4] [%] | growth at 10 µM [5] [%] | growth at 10 µM [6] [%] | growth at 10 µM [7] [%] | growth at 10 µM [8] [%] | growth at 10 µM [9] [%] | growth at 10 µM [10] [%] | growth at 10 µM [11] [%] | growth at 10 µM [12] [%] | growth at 10 µM [13] [%] | growth at 10 µM [14] [%] | growth at 10 µM [15] [%] | growth at 10 µM [16] [%] | growth at 10 µM [17] [%] | growth at 10 µM [18] [%] | growth at 10 µM [19] [%] | growth at 10 µM [20] [%] | further results |
| --- | --- | --- | --- | --- | --- | --- | --- | --- | --- | --- | --- | --- | --- | --- | --- | --- | --- | --- | --- | --- | --- |
| COc1ccc(Cn2cc(C(=O)N/N=C3/C(=O)Nc4ccc(Br)cc43)nn2)cc1 | 108 | 102 | 95.1 | 89.1 | 112 | 111 | 114 | 115 | 105 | 102 | 111 | 88.1 | 88.5 | 97.1 | 104 | 112 | 105 | 114 | 85.2 | -89.9 | growth at 10 µM [21]: 105%; growth at 10 µM [22]: 116%; growth at 10 µM [23]: 97.7%; growth at 10 µM [24]: 92.5%; growth at 10 µM [25]: 91.5%; growth at 10 µM [26]: 102%; growth at 10 µM [27]: 105%; growth at 10 µM [28]: 100%; growth at 10 µM [29]: 98.3%; growth at 10 µM [30]: 106%; growth at 10 µM [31]: 99.8%; growth at 10 µM [32]: 93.7%; growth at 10 µM [33]: 107% |
| COc1ccc(Cn2cc(C(=O)N/N=C3/C(=O)Nc4ccc(C)cc43)nn2)cc1 | 110 | 101 | 97.9 | 83.6 | 110 | 112 | 121 | 107 | 109 | 98.4 | 105 | 87.8 | 87.1 | 91.6 | 95.4 | 108 | 111 | 106 | 84.8 | 106 | growth at 10 µM [21]: 104%; growth at 10 µM [22]: 111%; growth at 10 µM [23]: 95.4%; growth at 10 µM [24]: 98.1%; growth at 10 µM [25]: 95%; growth at 10 µM [26]: 104%; growth at 10 µM [27]: 105%; growth at 10 µM [28]: 105%; growth at 10 µM [29]: 91.7%; growth at 10 µM [30]: 105%; growth at 10 µM [31]: 117%; growth at 10 µM [32]: 96%; growth at 10 µM [33]: 102% |
| COc1ccc(Cn2cc(C(=O)N/N=C3/C(=O)Nc4c(F)cccc43)nn2)cc1 | 96.3 | 88.7 | 93.2 | 88.6 | 90.1 | 98.4 | 83.8 | 95 | 91.1 | 94.8 | 105 | 88 | 86.5 | 113 | 101 | 111 | 99.5 | 101 | 90.7 | 78.2 | growth at 10 µM [21]: 61.5%; growth at 10 µM [22]: 104%; growth at 10 µM [23]: 84.2%; growth at 10 µM [24]: 90.2%; growth at 10 µM [25]: 77%; growth at 10 µM [26]: 90.1%; growth at 10 µM [27]: 94.6%; growth at 10 µM [28]: 89.7%; growth at 10 µM [29]: 99.3%; growth at 10 µM [30]: 94.8%; growth at 10 µM [31]: 86.3%; growth at 10 µM [32]: 102%; growth at 10 µM [33]: 97.8% |

— ChEMBL document CHEMBL4411296, “Design and development of Isatin-triazole hydrazones as potential inhibitors of microtubule affinity-regulating kinase 4 for the therapeutic management of cell proliferation and metastasis” (Eur J Med Chem, 2019)
